Source: article PMC3306470 (ACS chemical biology, 2012)

Columns and labels:
[1] = not told; cited from earlier work
[2] = molecular target: endogenous PARG in whole cell lysate generated from mouse embryonic fibroblasts (MEFs) (Mus musculus, UniProt O88622); assay: Processing of 32P-PAR by MEF whole cell lysate; type: biochemical; conditions: 25 μM, MEF lysate 1.5 μg
[3] = system: PARG; assay: PARG in vitro assay; conditions: for PARG inhibition: 0.5 h incubation with 32P-PAR
[4] = system: PARG; conditions: cited from earlier work
[5] = system: PARG; assay: PARG in vitro assay under the original salicylanilide conditions; conditions: 10 μM; phosphate buffer, 5 min; both in the absence and presence of 0.1% Triton X-100
[6] = system: ß-lactamase; assay: ß-Lactamase assay

Sequence of endogenous PARG in whole cell lysate generated from mouse embryonic fibroblasts (MEFs) (O88622 whole entry): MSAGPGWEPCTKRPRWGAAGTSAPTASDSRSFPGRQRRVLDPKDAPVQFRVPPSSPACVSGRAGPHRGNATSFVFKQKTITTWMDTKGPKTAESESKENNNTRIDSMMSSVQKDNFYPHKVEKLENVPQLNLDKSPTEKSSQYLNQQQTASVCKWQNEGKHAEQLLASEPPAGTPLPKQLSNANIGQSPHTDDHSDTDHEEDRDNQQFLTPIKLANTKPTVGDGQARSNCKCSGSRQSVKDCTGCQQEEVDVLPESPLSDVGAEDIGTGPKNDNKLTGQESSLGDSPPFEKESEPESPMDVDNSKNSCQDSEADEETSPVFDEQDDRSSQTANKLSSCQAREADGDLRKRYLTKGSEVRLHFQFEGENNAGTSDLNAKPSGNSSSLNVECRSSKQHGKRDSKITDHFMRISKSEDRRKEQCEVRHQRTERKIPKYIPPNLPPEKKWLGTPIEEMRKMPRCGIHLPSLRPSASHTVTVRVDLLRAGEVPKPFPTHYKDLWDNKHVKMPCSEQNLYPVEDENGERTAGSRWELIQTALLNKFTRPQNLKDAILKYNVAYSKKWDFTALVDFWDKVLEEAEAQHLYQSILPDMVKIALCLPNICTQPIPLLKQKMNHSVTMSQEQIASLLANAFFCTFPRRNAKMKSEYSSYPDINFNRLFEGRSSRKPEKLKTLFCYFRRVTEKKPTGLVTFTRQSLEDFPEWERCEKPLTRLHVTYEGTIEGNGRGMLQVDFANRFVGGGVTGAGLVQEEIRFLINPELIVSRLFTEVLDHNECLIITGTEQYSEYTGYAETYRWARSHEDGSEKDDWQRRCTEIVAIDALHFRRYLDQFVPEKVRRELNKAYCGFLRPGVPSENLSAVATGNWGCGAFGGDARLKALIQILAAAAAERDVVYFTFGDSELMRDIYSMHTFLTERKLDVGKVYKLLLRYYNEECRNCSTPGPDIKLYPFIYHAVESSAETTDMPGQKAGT

Row | Compound | cell permeability [1] | intact PAR at 60 min [2] | PARG inhibition ([3]; 0.5 μM) | PARG inhibition ([3]; 25 μM) | PARG inhibition after prolonged incubation ([3]; 0.5 – 25 μM, 2 h incubation with 32P-PAR) | partial inhibition of PARG [4] | IC50 ([4]; read-out: IC50 for PARG inhibition, literature value) | PARG inhibition [5] | inhibition of ß-lactamase ([6]; 50 μM, absence of detergent) | inhibition of ß-lactamase in the presence of detergent ([6]; 5-50 μM, 0.1% Triton X-100) | effect of detergent on inhibition of PARG ([3]; compound 50 μM, presence or absence of 0.1% Triton X-100, 2 h)
1 | Nc1ncnc2c1ncn2[C@@H]1O[C@H](CO[P@](=O)(O)O[P@@](=O)(O)OC[C@H]2NC[C@H](O)[C@@H]2O)[C@@H](O)[C@H]1O [ADP-HPD, Adenosine diphosphate (hydroxymethyl)pyrrolidinediol] | lack of cell permeability | approx. 80% | partially inhibited | 67% | only minimal PARG inhibition | partial inhibition of PARG | 120 nM | complete inhibition |  |  | 
2 | Nc1c(/N=N/c2ccc(-c3ccc(/N=N/c4cc(S(=O)(=O)O)c5ccccc5c4N)cc3)cc2)cc(S(=O)(=O)O)c2ccccc12 [Congo Red] |  |  |  |  |  |  |  |  | 100% | < 10% | complete loss of inhibition
